From article PMC10364322, “Evaluation of chronic drug-induced electrophysiological and cytotoxic effects using human-induced pluripotent stem cell-derived cardiomyocytes (hiPSC-CMs)” (Frontiers in Pharmacology, 2023)
Like-named read-outs stand apart in the source and are kept apart here.

System: hiPSC-CMs (iCell-Cardiomyocytes^2)
How it was run: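 Monolayers of hiPSC-CMs on fibronectin-coated MEA plates, 50 K/well, kept at 37°C, 5% CO2; compounds added in 0.1% final DMSO after 5-min baseline. Field potential and impedance parameters expressed as mean ± SD percent change from baseline; arrhythmic events noted; cytotoxicity fluorescence normalized to DMSO, Kruskal-Wallis.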

N=C(N)c1ccc(OCCCCCOc2ccc(C(=N)N)cc2)cc1 [Pentamidine]
BR (beating rate), % change from baseline (0.1 µM, 2h): -1±2%
Beating below threshold, number of observations/total well numbers (0.1 µM, 2h): 0/6
Cessation of beating, number of observations/total well numbers (0.1 µM, 2h): 0/6
EAD, number of observations/total well numbers (0.1 µM, 2h): 0/6
FPD (field-potential duration), % change from baseline (0.1 µM, 2h): 2.6±1.2%
FPDc (field-potential duration corrected by beat-rate), % change from baseline (0.1 µM, 2h): 2.2±1.4%
Flat T-wave-like, number of observations/total well numbers (0.1 µM, 2h): 0/6
BR (beating rate), % change from baseline (0.1 µM, 24h): 2±2%
Beating below threshold, number of observations/total well numbers (0.1 µM, 24h): 0/6
Cessation of beating, number of observations/total well numbers (0.1 µM, 24h): 0/6
EAD, number of observations/total well numbers (0.1 µM, 24h): 0/6
FPD (field-potential duration), % change from baseline (0.1 µM, 24h): 2±3.4%
FPDc (field-potential duration corrected by beat-rate), % change from baseline (0.1 µM, 24h): 2.8±3.1%
Flat T-wave-like, number of observations/total well numbers (0.1 µM, 24h): 0/6
BR (beating rate), % change from baseline (0.1 µM, 48h): -4±3%
Beating below threshold, number of observations/total well numbers (0.1 µM, 48h): 0/6
Cessation of beating, number of observations/total well numbers (0.1 µM, 48h): 0/6
EAD, number of observations/total well numbers (0.1 µM, 48h): 0/6
FPD (field-potential duration), % change from baseline (0.1 µM, 48h): 7.3±1.7%
FPDc (field-potential duration corrected by beat-rate), % change from baseline (0.1 µM, 48h): 5.7±2%
Flat T-wave-like, number of observations/total well numbers (0.1 µM, 48h): 0/6
BR (beating rate), % change from baseline (0.1 µM, 72h): -6±3%
Beating below threshold, number of observations/total well numbers (0.1 µM, 72h): 0/6
Cessation of beating, number of observations/total well numbers (0.1 µM, 72h): 0/6
EAD, number of observations/total well numbers (0.1 µM, 72h): 0/6
FPD (field-potential duration), % change from baseline (0.1 µM, 72h): 4.9±2.5%
FPDc (field-potential duration corrected by beat-rate), % change from baseline (0.1 µM, 72h): 3±2.9%
Flat T-wave-like, number of observations/total well numbers (0.1 µM, 72h): 0/6
BR (beating rate), % change from baseline (0.1 µM, 96h): -13±3%
Beating below threshold, number of observations/total well numbers (0.1 µM, 96h): 0/6
Cessation of beating, number of observations/total well numbers (0.1 µM, 96h): 0/6
EAD, number of observations/total well numbers (0.1 µM, 96h): 0/6
FPD (field-potential duration), % change from baseline (0.1 µM, 96h): 9.2±3.1%
FPDc (field-potential duration corrected by beat-rate), % change from baseline (0.1 µM, 96h): 4.3±2.8%
Flat T-wave-like, number of observations/total well numbers (0.1 µM, 96h): 0/6
BR (beating rate), % change from baseline (0.3 µM, 2h): -4±4%
Beating below threshold, number of observations/total well numbers (0.3 µM, 2h): 0/5
Cessation of beating, number of observations/total well numbers (0.3 µM, 2h): 0/5
EAD, number of observations/total well numbers (0.3 µM, 2h): 0/5
FPD (field-potential duration), % change from baseline (0.3 µM, 2h): 9.7±6.7 %
FPDc (field-potential duration corrected by beat-rate), % change from baseline (0.3 µM, 2h): 8±7.4%
Flat T-wave-like, number of observations/total well numbers (0.3 µM, 2h): 0/5
BR (beating rate), % change from baseline (0.3 µM, 24h): 0±3%
Beating below threshold, number of observations/total well numbers (0.3 µM, 24h): 0/5
Cessation of beating, number of observations/total well numbers (0.3 µM, 24h): 0/5
EAD, number of observations/total well numbers (0.3 µM, 24h): 0/5
FPD (field-potential duration), % change from baseline (0.3 µM, 24h): 4.6±3.3%
FPDc (field-potential duration corrected by beat-rate), % change from baseline (0.3 µM, 24h): 4.5±3.1%
Flat T-wave-like, number of observations/total well numbers (0.3 µM, 24h): 0/5
BR (beating rate), % change from baseline (0.3 µM, 48h): -2±4%
Beating below threshold, number of observations/total well numbers (0.3 µM, 48h): 0/5
Cessation of beating, number of observations/total well numbers (0.3 µM, 48h): 0/5
EAD, number of observations/total well numbers (0.3 µM, 48h): 0/5
FPD (field-potential duration), % change from baseline (0.3 µM, 48h): 4.9±2.6%
FPDc (field-potential duration corrected by beat-rate), % change from baseline (0.3 µM, 48h): 4.1±2%
Flat T-wave-like, number of observations/total well numbers (0.3 µM, 48h): 0/5
BR (beating rate), % change from baseline (0.3 µM, 72h): -11±4%
Beating below threshold, number of observations/total well numbers (0.3 µM, 72h): 0/5
Cessation of beating, number of observations/total well numbers (0.3 µM, 72h): 0/5
EAD, number of observations/total well numbers (0.3 µM, 72h): 0/5
FPD (field-potential duration), % change from baseline (0.3 µM, 72h): 10.5±2.1%
FPDc (field-potential duration corrected by beat-rate), % change from baseline (0.3 µM, 72h): 6.4±2.9%
Flat T-wave-like, number of observations/total well numbers (0.3 µM, 72h): 0/5
BR (beating rate), % change from baseline (0.3 µM, 96h): -20±5%
Beating below threshold, number of observations/total well numbers (0.3 µM, 96h): 0/5
Cessation of beating, number of observations/total well numbers (0.3 µM, 96h): 0/5
EAD, number of observations/total well numbers (0.3 µM, 96h): 0/5
FPD (field-potential duration), % change from baseline (0.3 µM, 96h): 17.7±1.7%
FPDc (field-potential duration corrected by beat-rate), % change from baseline (0.3 µM, 96h): 9.3±1.9%
Flat T-wave-like, number of observations/total well numbers (0.3 µM, 96h): 0/5
time point from which physiologically relevant prolongation of FPD and FPDc was observed (1 µM): 48 h
BR (beating rate), % change from baseline (1 µM, 2h): -3±3%
Beating below threshold, number of observations/total well numbers (1 µM, 2h): 0/6
Cessation of beating, number of observations/total well numbers (1 µM, 2h): 0/6
EAD, number of observations/total well numbers (1 µM, 2h): 0/6
FPD (field-potential duration), % change from baseline (1 µM, 2h): 3.6±1.6%
FPDc (field-potential duration corrected by beat-rate), % change from baseline (1 µM, 2h): 2.5±1.7%
Flat T-wave-like, number of observations/total well numbers (1 µM, 2h): 0/6
BR (beating rate), % change from baseline (1 µM, 24h): -7±3%
Beating below threshold, number of observations/total well numbers (1 µM, 24h): 0/6
Cessation of beating, number of observations/total well numbers (1 µM, 24h): 0/6
EAD, number of observations/total well numbers (1 µM, 24h): 0/6
FPD (field-potential duration), % change from baseline (1 µM, 24h): 8±1%
FPDc (field-potential duration corrected by beat-rate), % change from baseline (1 µM, 24h): 5.5±1.6%
Flat T-wave-like, number of observations/total well numbers (1 µM, 24h): 0/6
BR (beating rate), % change from baseline (1 µM, 48h): -16±3 %
Beating below threshold, number of observations/total well numbers (1 µM, 48h): 0/6
Cessation of beating, number of observations/total well numbers (1 µM, 48h): 0/6
EAD, number of observations/total well numbers (1 µM, 48h): 0/6
FPD (field-potential duration), % change from baseline (1 µM, 48h): 21.1±3.4 %
FPDc (field-potential duration corrected by beat-rate), % change from baseline (1 µM, 48h): 14.3±2.3 %
Flat T-wave-like, number of observations/total well numbers (1 µM, 48h): 0/6
BR (beating rate), % change from baseline (1 µM, 72h): -30±2 %
Beating below threshold, number of observations/total well numbers (1 µM, 72h): 0/6
Cessation of beating, number of observations/total well numbers (1 µM, 72h): 0/6
EAD, number of observations/total well numbers (1 µM, 72h): 0/6
FPD (field-potential duration), % change from baseline (1 µM, 72h): 54.7±5.4 %
FPDc (field-potential duration corrected by beat-rate), % change from baseline (1 µM, 72h): 37.5±4.3 %
Flat T-wave-like, number of observations/total well numbers (1 µM, 72h): 0/6
BR (beating rate), % change from baseline (1 µM, 96h): -30±5 %
Beating below threshold, number of observations/total well numbers (1 µM, 96h): 0/6
Cessation of beating, number of observations/total well numbers (1 µM, 96h): 0/6
EAD, number of observations/total well numbers (1 µM, 96h): 0/6
FPD (field-potential duration), % change from baseline (1 µM, 96h): 71.5±10.4 %
FPDc (field-potential duration corrected by beat-rate), % change from baseline (1 µM, 96h): 52.5±8.8 %
Flat T-wave-like, number of observations/total well numbers (1 µM, 96h): 0/6
time point from which physiologically relevant prolongation of FPD and FPDc was observed (3 µM): 24 h
BR (beating rate), % change from baseline (3 µM, 72h): -54±5 %
Beating below threshold, number of observations/total well numbers (3 µM, 72h): 0/6
Cessation of beating, number of observations/total well numbers (3 µM, 72h): 3/6
EAD, number of observations/total well numbers (3 µM, 72h): 2/6
FPD (field-potential duration), % change from baseline (3 µM, 72h): 224.5±68 %
FPDc (field-potential duration corrected by beat-rate), % change from baseline (3 µM, 72h): 156.4±52.5 %
Flat T-wave-like, number of observations/total well numbers (3 µM, 72h): 1/6
cessation of beating, wells/total wells (3 µM, 72h): 3/6
Beating below threshold, number of observations/total well numbers (3 µM, 96h): 1/6
Cessation of beating, number of observations/total well numbers (3 µM, 96h): 5/6
EAD, number of observations/total well numbers (3 µM, 96h): 0/6
Flat T-wave-like, number of observations/total well numbers (3 µM, 96h): 0/6
cessation of beating, wells/total wells (3 µM, 96h): 6/6
BR (beating rate), % change from baseline (3 µM, 2h): -2±3%
Beating below threshold, number of observations/total well numbers (3 µM, 2h): 0/6
Cessation of beating, number of observations/total well numbers (3 µM, 2h): 0/6
EAD, number of observations/total well numbers (3 µM, 2h): 0/6
FPD (field-potential duration), % change from baseline (3 µM, 2h): 3.6±1.9%
FPDc (field-potential duration corrected by beat-rate), % change from baseline (3 µM, 2h): 2.7±2.1%
Flat T-wave-like, number of observations/total well numbers (3 µM, 2h): 0/6
BR (beating rate), % change from baseline (3 µM, 24h): -18±8 %
Beating below threshold, number of observations/total well numbers (3 µM, 24h): 0/6
Cessation of beating, number of observations/total well numbers (3 µM, 24h): 0/6
EAD, number of observations/total well numbers (3 µM, 24h): 0/6
FPD (field-potential duration), % change from baseline (3 µM, 24h): 23.4±11.8 %
FPDc (field-potential duration corrected by beat-rate), % change from baseline (3 µM, 24h): 15.2±8%
Flat T-wave-like, number of observations/total well numbers (3 µM, 24h): 0/6
BR (beating rate), % change from baseline (3 µM, 48h): -30±8 %
Beating below threshold, number of observations/total well numbers (3 µM, 48h): 0/6
Cessation of beating, number of observations/total well numbers (3 µM, 48h): 0/6
EAD, number of observations/total well numbers (3 µM, 48h): 0/6
FPD (field-potential duration), % change from baseline (3 µM, 48h): 73.1±39.4 %
FPDc (field-potential duration corrected by beat-rate), % change from baseline (3 µM, 48h): 52.6±30.7 %
Flat T-wave-like, number of observations/total well numbers (3 µM, 48h): 0/6
concentration from which prolongation of FPD and EAD-like events were induced (time- and dose-dependent): 1000 nM
